US20170107229A1, “SUBSTITUTED TETRAHYDROPYRIDOTHIENOPYRIMIDINES” (BAYER PHARMA AKTIENGESELLSCHAFT, priority 2014, published 2017)

Each compound was assayed against T1, human full-length MKNK1 (Homo sapiens, UniProt Q9BUB5, T385D) (assay: MKNK1 kinase high ATP assay (TR-FRET)). Details: high ATP (2 mM final), 15 min preincubation with enzyme, GST-MKNK1 (T344D).
T1 construct: GST (N); purchased Carna Biosciences 02-145; host or cells: insect cells (baculovirus expression system)
Format: biochemical
Protocol: MKNK1-inhibitory activity at high ATP of compounds of the present invention after their preincubation with MKNK1 was quantified employing the TR-FRET-based MKNK1 high ATP assay as described in the following paragraphs.
A recombinant fusion protein of Glutathione-S-Transferase (GST, N-terminally) and human full-length MKNK1 (amino acids 1-424 and T344D of accession number BAA 19885.1), expressed in insect cells using baculovirus expression system and purified via glutathione sepharose affinity chromatography, was purchased from Carna Biosciences (product no 02-145) and used as enzyme. As substrate for the kinase reaction the biotinylated peptide biotin-Ahx-IKKRKLTRRKSLKG (C-terminus in amide form) was used, which can be purchased e.g. from the company Biosyntan (Berlin-Buch, Germany).
For the assay 50 nL of a 100fold concentrated solution of the test compound in DMSO was pipetted into a black low volume 384well microtiter plate (Greiner Bio-One, Frickenhausen, Germany), 2 μL of a solution of MKNK1 in aqueous assay buffer [50 mM HEPES pH 7.5, 5 mM MgCl2, 1.0 mM dithiothreitol, 0.005% (v/v) Nonidet-P40 (Sigma)] was added and the mixture was incubated for 15 min at 22° C. to allow pre-binding of the test compounds to the enzyme before the start of the kinase reaction. Then the kinase reaction was started by the addition of 3 μL of a solution of adenosine-tri-phosphate (ATP, 3.3 mM=>final conc. in the 5 μL assay volume is 2 mM) and substrate (0.1 μM=>final conc. in the 5 μL assay volume is 0.06 μM) in assay buffer and the resulting mixture was incubated for a reaction time of 30 min at 22° C. The concentration of MKNK1 was adjusted depending of the activity of the enzyme lot and was chosen appropriate to have the assay in the linear range, typical concentrations were in the range of 0.003 μg/mL. The reaction was stopped by the addition of 5 μL of a solution of TR-FRET detection reagents (5 nM streptavidine-XL665 [Cisbio Bioassays, Codolet, France] and 1 nM anti-ribosomal protein S6 (pSer236)-antibody from Invitrogen [#44921G] and 1 nM LANCE EU-W1024 labeled ProteinG [Perkin-Elmer, product no. AD0071]) in an aqueous EDTA-solution (100 mM EDTA, 0.1% (w/v) bovine serum albumin in 50 mM HEPES pH 7.5).
The resulting mixture was incubated for 1 h at 22° C. to allow the formation of complex between the phosphorylated biotinylated peptide and the detection reagents. Subsequently the amount of phosphorylated substrate was evaluated by measurement of the resonance energy transfer from the Eu-chelate to the streptavidine-XL. Therefore, the fluorescence emissions at 620 nm and 665 nm after excitation at 350 nm were measured in a TR-FRET reader, e.g. a Rubystar (BMG Labtechnologies, Offenburg, Germany) or a Viewlux (Perkin-Elmer). The ratio of the emissions at 665 nm and at […] was taken as the measure for the amount of phosphorylated substrate. The data were normalised (enzyme reaction without inhibitor=0% inhibition, all other assay components but no enzyme=100% inhibition).

T1 sequence (Q9BUB5 1-424 isoform Q9BUB5-2 T344D): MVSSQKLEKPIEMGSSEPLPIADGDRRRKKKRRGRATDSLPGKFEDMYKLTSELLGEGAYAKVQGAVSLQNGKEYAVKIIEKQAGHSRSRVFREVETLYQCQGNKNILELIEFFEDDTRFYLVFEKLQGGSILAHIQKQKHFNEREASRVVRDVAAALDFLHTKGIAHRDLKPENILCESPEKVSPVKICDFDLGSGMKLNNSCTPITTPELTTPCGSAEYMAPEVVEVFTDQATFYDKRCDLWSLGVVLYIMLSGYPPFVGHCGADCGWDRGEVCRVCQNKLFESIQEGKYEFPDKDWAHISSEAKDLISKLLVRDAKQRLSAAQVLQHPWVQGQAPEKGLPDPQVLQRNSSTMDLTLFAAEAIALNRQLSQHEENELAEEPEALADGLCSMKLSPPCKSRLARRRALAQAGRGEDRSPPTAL

IC50 [nM]	SMILES
316	CS(=O)(=O)N1CCc2c(sc3ncnc(Nc4ccc5[nH]c(=O)sc5c4)c23)C1 [Example 39, 6-{[7-(Methylsulfonyl)-5,6,7,8-tetrahydropyrido[4′,3′:4,5]thieno[2,3-d]pyrimidin-4-yl]amino}-1,3-benzothiazol-2(3H)-one]
139	CS(=O)(=O)N1CCc2c(sc3ncnc(Nc4cnc5[nH]ncc5c4)c23)C1 [Example 40, 7-(Methylsulfonyl)-N-(1H-pyrazolo[3,4-b]pyridin-5-yl)-5,6,7,8-tetrahydropyrido[4′,3′:4,5]thieno[2,3-d]pyrimidin-4-amine]
216	O=C(N1CCOCC1)N1CCc2c(sc3ncnc(Nc4ccc5[nH]c(=O)sc5c4)c23)C1 [Example 41, 6-{[7-(Morpholin-4-ylcarbonyl)-5,6,7,8-tetrahydropyrido[4′,3′:4,5]thieno[2,3-d]pyrimidin-4-yl]amino}-1,3-benzothiazol-2(3H)-one]
22	COc1cc2[nH]ncc2cc1Nc1ncnc2sc3c(c12)CCN(C(=O)N1CCOCC1)C3 [Example 42, {4-[(6-Methoxy-1H-indazol-5-yl)amino]-5,8-dihydropyrido[4′,3′:4,5]thieno[2,3-d]pyrimidin-7(6H)-yl}(morpholin-4-yl)methanone]
48	O=C(N1CCOCC1)N1CCc2c(sc3ncnc(Nc4ccc5[nH]ncc5c4)c23)C1 [Example 43, [4-(1H-Indazol-5-ylamino)-5,8-dihydropyrido[4′,3′:4,5]thieno[2,3-d]pyrimidin-7(6H)-yl](morpholin-4-yl)methanone]
118	O=C(N1CCOCC1)N1CCc2c(sc3ncnc(Nc4cnc5[nH]ncc5c4)c23)C1 [Example 44, Morpholin-4-yl[4-(1H-pyrazolo[3,4-b]pyridin-5-ylamino)-5,8-dihydropyrido[4′,3′:4,5]thieno[2,3-d]pyrimidin-7(6H)-yl]methanone]
87	COc1nc2[nH]ncc2cc1Nc1ncnc2sc3c(c12)CCNC3 [Example 45, N-(6-Methoxy-1H-pyrazolo[3,4-b]pyridin-5-yl)-5,6,7,8-tetrahydropyrido[4′,3′:4,5]thieno[2,3-d]pyrimidin-4-amine]
87	CSc1cc2[nH]ncc2cc1Nc1ncnc2sc3c(c12)CCN(C(=O)N(C)C)C3 [Example 46, N,N-Dimethyl-4-{[6-(methylsulfanyl)-1H-indazol-5-yl]amino}-5,8-dihydropyrido[4′,3′:4,5]thieno[2,3-d]pyrimidine-7(6H)-carboxamide]
61	CSc1cc2[nH]ncc2cc1Nc1ncnc2sc3c(c12)CCN(C(=O)N1CCOCC1)C3 [Example 47, [4-{[6-(Methylsulfanyl)-1H-indazol-5-yl]amino}-5,8-dihydropyrido[4′,3′:4,5]thieno[2,3-d]pyrimidin-7(6H)-yl](morpholin-4-yl)methanone]
27	CSc1cc2[nH]ncc2cc1Nc1ncnc2sc3c(c12)CCN(S(C)(=O)=O)C3 [Example 48, N-[6-(Methylsulfanyl)-1H-indazol-5-yl]-7-(methylsulfonyl)-5,6,7,8-tetrahydropyrido[4′,3′:4,5]thieno[2,3-d]pyrimidin-4-amine]
125	CS(=O)(=O)N1CCc2c(sc3ncnc(Nc4cc5cn[nH]c5cc4Cl)c23)C1 [Example 49, N-(6-Chloro-1H-indazol-5-yl)-7-(methylsulfonyl)-5,6,7,8-tetrahydropyrido[4′,3′:4,5]thieno[2,3-d]pyrimidin-4-amine]
40	COc1nc2[nH]ncc2cc1Nc1ncnc2sc3c(c12)CCN(S(C)(=O)=O)C3 [Example 50, N-(6-Methoxy-1H-pyrazolo[3,4-b]pyridin-5-yl)-7-(methylsulfonyl)-5,6,7,8-tetrahydropyrido[4′,3′:4,5]thieno[2,3-d]pyrimidin-4-amine]
57	O=C(N1CCOCC1)N1CCc2c(sc3ncnc(Nc4cc5cn[nH]c5cc4Cl)c23)C1 [Example 51, {4-[(6-Chloro-1H-indazol-5-yl)amino]-5,8-dihydropyrido[4′,3′:4,5]thieno[2,3-d]pyrimidin-7(6H)-yl}(morpholin-4-yl)methanone]
13	COc1nc2[nH]ncc2cc1Nc1ncnc2sc3c(c12)CCN(C(=O)N1CCOCC1)C3 [Example 52, {4-[(6-Methoxy-1H-pyrazolo[3,4-b]pyridin-5-yl)amino]-5,8-dihydropyrido[4′,3′:4,5]thieno[2,3-d]pyrimidin-7(6H)-yl}(morpholin-4-yl)methanone]
258	O=C(N1CCOCC1)N1CCc2c(sc3ncnc(Nc4cc5cn[nH]c5cc4Br)c23)C1 [Example 53, {4-[(6-Bromo-1H-indazol-5-yl)amino]-5,8-dihydropyrido[4′,3′:4,5]thieno[2,3-d]pyrimidin-7(6H)-yl}(morpholin-4-yl)methanone]
6	COc1cc2[nH]ncc2cc1Nc1ncnc2sc3c(c12)CCN(C(=O)CC(F)(F)F)C3 [Example 54, 3,3,3-Trifluoro-1-{4-[(6-methoxy-1H-indazol-5-yl)amino]-5,8-dihydropyrido[4′,3′:4,5]thieno[2,3-d]pyrimidin-7(6H)-yl}propan-1-one]
42	COc1nc2[nH]ncc2cc1Nc1ncnc2sc3c(c12)CCN(C(=O)C(C)C)C3 [Example 55, 1-{4-[(6-Methoxy-1H-pyrazolo[3,4-b]pyridin-5-yl)amino]-5,8-dihydropyrido[4′,3′:4,5]thieno[2,3-d]pyrimidin-7(6H)-yl}-2-methylpropan-1-one]
71	CC(C)C(=O)N1CCc2c(sc3ncnc(Nc4cc5cn[nH]c5cc4Cl)c23)C1 [Example 56, 1-{4-[(6-Chloro-1H-indazol-5-yl)amino]-5,8-dihydropyrido[4′,3′:4,5]thieno[2,3-d]pyrimidin-7(6H)-yl}-2-methylpropan-1-one]
61	C[C@@H]1CN(C(=O)N2CCc3c(sc4ncnc(Nc5ccn6nccc6c5)c34)C2)C[C@H](C)O1 [Example 58, [(2R,6S)-2,6-Dimethylmorpholin-4-yl][4-(pyrazolo[1,5-a]pyridin-5-ylamino)-5,8-dihydropyrido[4′,3′:4,5]thieno[2,3-d]pyrimidin-7(6H)-yl]methanone]
5	COc1nc2[nH]ncc2cc1Nc1ncnc2sc3c(c12)CCN(C(=O)OC(C)(C)C)C3 [Example 59, tert-Butyl 4-[(6-methoxy-1H-pyrazolo[3,4-b]pyridin-5-yl)amino]-5,8-dihydropyrido[4′,3′:4,5]thieno[2,3-d]pyrimidine-7(6H)-carboxylate]
98	c1nc(Nc2cc3cn[nH]c3cn2)c2c3c(sc2n1)CN(CCN1CCOCC1)CC3 [Example 60, 7-[2-(Morpholin-4-yl)ethyl]-N-(1H-pyrazolo[3,4-c]pyridin-5-yl)-5,6,7,8-tetrahydropyrido[4′,3′:4,5]thieno[2,3-d]pyrimidin-4-amine]
25	c1nc(Nc2ccc3[nH]ncc3c2)c2c3c(sc2n1)CN(CCN1CCOCC1)CC3 [Example 61, N-(1H-Indazol-5-yl)-7-[2-(morpholin-4-yl)ethyl]-5,6,7,8-tetrahydropyrido[4′,3′:4,5]thieno[2,3-d]pyrimidin-4-amine]
9	COc1cc2[nH]ncc2cc1Nc1ncnc2sc3c(c12)CCN(CCN1CCOCC1)C3 [Example 62, N-(6-Methoxy-1H-indazol-5-yl)-7-[2-(morpholin-4-yl)ethyl]-5,6,7,8-tetrahydropyrido[4′,3′:4,5]thieno[2,3-d]pyrimidin-4-amine]
236	O=c1[nH]c2ccc(Nc3ncnc4sc5c(c34)CCN(CCN3CCOCC3)C5)cc2s1 [Example 63, 6-({7-[2-(Morpholin-4-yl)ethyl]-5,6,7,8-tetrahydropyrido[4′,3′:4,5]thieno[2,3-d]pyrimidin-4-yl}amino)-1,3-benzothiazol-2(3H)-one]
119	c1nc(Nc2cnc3[nH]ncc3c2)c2c3c(sc2n1)CN(CCN1CCOCC1)CC3 [Example 64, 7-[2-(Morpholin-4-yl)ethyl]-N-(1H-pyrazolo[3,4-b]pyridin-5-yl)-5,6,7,8-tetrahydropyrido[4′,3′:4,5]thieno[2,3-d]pyrimidin-4-amine]
